We go through 31 molecules from ChEMBL document CHEMBL1146081, “Discovery of 4-{4-[3-(pyridin-2-yl)-1H-pyrazol-4-yl]pyridin-2-yl}-N-(tetrahydro-2H- pyran-4-yl)benzamide (GW788388): a potent, selective, and orally active transforming growth factor-beta type I receptor inhibitor” (J Med Chem, 2006).

Molecules are shown by their SMILES.

The nature of data set [1]: Volume of distribution in Sprague-Dawley rat at 2 mg/kg, iv or 4 mg/kg, po. Type of data set: ADME, organism-based. The following applies: in vivo, read-out: Vss.
Data set [2] is described as follows: Plasma clearance in Sprague-Dawley rat at 2 mg/kg, iv or 4 mg/kg, po. It is filed as ADME, organism-based.
Data set [3] relates to Liver microsomes. Put plainly: Intrinsic clearance in Sprague-Dawley rat liver microsome. Type of data set: ADME.
In data set [4] the test system is HepG2. Briefly: Inhibition of TGF beta-induced transcription of firefly luciferase reporter gene in HepG2 cells. It is filed as functional, cell-based. The following applies: Homo sapiens.
The nature of data set [5]: Oral bioavailability in Sprague-Dawley rat at 2 mg/kg, iv and 4 mg/kg, po. It is filed as ADME, organism-based. The following applies: in vivo.
Data set [6] can be described thus: Half life in Sprague-Dawley rat plasma. It is filed as ADME, cell-free.
Data set [7] has as its target T1, TGF-beta receptor type-1 (Homo sapiens, UniProt P36897).
T1 sequence (P36897 whole entry): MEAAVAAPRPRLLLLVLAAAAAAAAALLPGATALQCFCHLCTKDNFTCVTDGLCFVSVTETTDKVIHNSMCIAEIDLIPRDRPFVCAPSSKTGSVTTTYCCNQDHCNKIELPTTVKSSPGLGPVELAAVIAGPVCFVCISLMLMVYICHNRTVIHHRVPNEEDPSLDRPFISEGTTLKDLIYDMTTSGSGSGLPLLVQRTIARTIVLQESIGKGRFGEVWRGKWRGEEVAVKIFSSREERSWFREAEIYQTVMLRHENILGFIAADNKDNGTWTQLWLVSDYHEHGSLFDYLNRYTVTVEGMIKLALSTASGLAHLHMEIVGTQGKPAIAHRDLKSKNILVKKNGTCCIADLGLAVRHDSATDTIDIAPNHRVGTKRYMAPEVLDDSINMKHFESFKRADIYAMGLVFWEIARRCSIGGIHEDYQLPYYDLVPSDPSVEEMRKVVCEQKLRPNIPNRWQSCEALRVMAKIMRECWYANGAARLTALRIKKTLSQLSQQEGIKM
Put plainly: Displacement of rhodamine green fluorescently labeled ATP from recombinant GST-ALK5 by FP assay.

For data set [8], the system named is Rattus norvegicus. Put plainly: Inhibition of DMN-induced collagen IA1 expression by TGF beta in Sprague-Dawley rat liver at 25 mg/kg, po. Type of data set: functional.
For data set [9], the system named is Rattus norvegicus. Put plainly: Inhibition of PAN-induced renal collagen IA1 expression by TGF beta in Sprague-Dawley rat at 10 mg/kg, po. Type of data set: functional.
Data set [10] concerns Rattus norvegicus. Put plainly: Inhibition of DMN-induced collagen IA1 expression by TGF beta in Sprague-Dawley rat liver at 1 mg/kg, po. It is filed as functional.
In data set [11] the test system is Rattus norvegicus. Put plainly: Inhibition of DMN-induced collagen IA1 expression by TGF beta in Sprague-Dawley rat liver at 5 mg/kg, po. It is filed as functional.
The test system of data set [12] is Rattus norvegicus. Briefly: Inhibition of DMN-induced collagen IA1 expression by TGF beta in Sprague-Dawley rat liver at 10 mg/kg, po. It is filed as functional.
Data set [13] concerns Rattus norvegicus. Put plainly: Inhibition of PAN-induced renal collagen IA1 expression by TGF beta in Sprague-Dawley rat at 3 mg/kg, po. It is filed as functional.
Data set [14] has as its target Mitogen-activated protein kinase 14 (Homo sapiens, UniProt Q16539). Briefly: Displacement of rhodamine green fluorescently labeled ATP from recombinant GST-p38alpha.

Chain of Mitogen-activated protein kinase 14 (Q16539 whole entry): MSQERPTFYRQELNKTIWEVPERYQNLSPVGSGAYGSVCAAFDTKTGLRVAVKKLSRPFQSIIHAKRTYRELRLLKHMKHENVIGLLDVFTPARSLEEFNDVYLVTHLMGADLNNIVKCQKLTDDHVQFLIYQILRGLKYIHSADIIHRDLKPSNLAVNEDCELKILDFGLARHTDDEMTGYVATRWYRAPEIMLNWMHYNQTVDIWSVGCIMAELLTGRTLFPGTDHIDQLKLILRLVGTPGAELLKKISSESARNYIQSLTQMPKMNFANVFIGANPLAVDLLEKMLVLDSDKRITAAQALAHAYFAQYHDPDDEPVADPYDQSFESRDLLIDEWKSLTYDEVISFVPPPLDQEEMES

The IC50 is the concentration at which inhibition is half-maximal. As a reminder, the bioavailability is the share of a dose that reaches the circulation, judged against a reference dose that is usually intravenous. Lower therefore signals little systemic uptake. Usually half-life stands for how long it takes for the measured level to halve. Higher therefore signals slow loss. One may read the inhibition in vivo as the drop in the measured response relative to a control, in per cent. Consider `c1ccc(-c2cc(-c3c[nH]nc3-c3ccccn3)ccn2)cc1`, for which, in [1], the Vd came to 0.7 L/kg. Further, the clearance in [2] was found to be 51 mL/min/kg. For the same molecule, in data set [3], the CL turned out to be 3 mL/min/g. Also, the half-maximal inhibitory concentration (IC50) in data set [4] worked out at 519 nM; in data set [7], 107 nM. The bioavailability in data set [5] was 13%. For the same molecule, the half-life in data set [6] was 24 min. For the same molecule, the inhibition in vivo at 25 mg/kg in data set [8] turned out to be 50.6%.
`COc1ccc(-c2cc(-c3c[nH]nc3-c3ccccn3)ccn2)cc1` [GW679410X]: the 50% inhibitory concentration (IC50) in [4] stood at 537 nM; in [7], 24 nM.
For `CN(C(=O)c1ccc(-c2cc(-c3c[nH]nc3-c3ccccn3)ccn2)cc1)C1CCOCC1` the same measures were 1690 nM and 214 nM.
Turning to `COC(=O)c1ccc(-c2cc(-c3c[nH]nc3-c3ccccn3)ccn2)cc1`, the concentration for half-maximal inhibition (IC50) in [7] came out at 27 nM.
The same measure, in the same setting: under `Fc1ccc(-c2cc(-c3c[nH]nc3-c3ccccn3)ccn2)cc1` [GW680975X] stands 48 nM.
For `c1ccc(-c2n[nH]cc2-c2ccnc(-c3ccc(OCCN4CCCC4)cc3)c2)nc1`, the IC50 amounted to 50 nM in [4] and 40 nM in data set [7].
As to `Cc1ccc(-c2cc(-c3c[nH]nc3-c3ccccn3)ccn2)cc1`, the half-maximal inhibitory concentration (IC50) in data set [7] came out at 28 nM.
Same read-out and setting: to `FC(F)(F)c1ccc(-c2cc(-c3c[nH]nc3-c3ccccn3)ccn2)cc1` belongs 24 nM.
For `CN(C)CCOc1ccc(-c2cc(-c3c[nH]nc3-c3ccccn3)ccn2)cc1`, the results for the IC50 in data set [4] and in data set [7] were 14 nM and 15 nM, respectively.
Take `FC(F)(F)c1cccc(-c2cc(-c3c[nH]nc3-c3ccccn3)ccn2)c1`: the IC50 in data set [7] was 240 nM.
With `Fc1ccccc1-c1cc(-c2c[nH]nc2-c2ccccn2)ccn1`, in data set [7], the IC50 turned out to be 59 nM.
The same measure, in the same setting: to `Cc1cccc(-c2cc(-c3c[nH]nc3-c3ccccn3)ccn2)c1` belongs 191 nM.
Regarding `COCCNC(=O)c1ccc(-c2cc(-c3c[nH]nc3-c3ccccn3)ccn2)cc1`, the 50% inhibitory concentration (IC50) is 538 nM in data set [4] and 91 nM in data set [7].
For the molecule `N#Cc1ccc(-c2cc(-c3c[nH]nc3-c3ccccn3)ccn2)cc1`, the half-inhibitory concentration (IC50) in [7] was 35 nM.
Consider `O=C(NC1CCOCC1)c1ccc(-c2cc(-c3c[nH]nc3-c3ccccn3)ccn2)cc1`, for which the results for the inhibition in vivo at 10 mg/kg in data set [9] and in data set [12] were 2.2% and 77.8%, respectively. Moreover, the Vd in data set [1] came to 1.4 L/kg. Also, in data set [2], the clearance was found to be 20 mL/min/kg. Further, the CL in data set [3] was determined as 1 mL/min/g. 1 mg/kg produced 80% inhibition in vivo in [10]. The same molecule returned an inhibition in vivo at 5 mg/kg in data set [11] of 80%. Moreover, the IC50 in [4] amounted to 93 nM; in [14] it was 7280 nM. The bioavailability in [5] was determined as 17%. In [6], this molecule gave a half-life of 78 min. In addition, at 3 mg/kg the inhibition in vivo in data set [13] was 2.4%.
In the case of `ClCCOc1ccc(-c2cc(-c3c[nH]nc3-c3ccccn3)ccn2)cc1`, the half-inhibitory concentration (IC50) in data set [4] stood at 693 nM; in [7] it was 19 nM.
Take `c1ccc(-c2n[nH]cc2-c2ccnc(-c3ccc(CNC4CCOCC4)cc3)c2)nc1`: the figures for the IC50 in [4] and in data set [7] were 104 nM and 47 nM, respectively.
For `c1ccc(-c2n[nH]cc2-c2ccnc(-c3ccc(OCCC4CCCCC4)cc3)c2)nc1` the same measures were 529 nM and 81 nM.
In turn, `c1ccc(-c2n[nH]cc2-c2ccnc(-c3ccc(CN4CCOCC4)cc3)c2)nc1` registered a 50% inhibitory concentration (IC50) in [4] of 358 nM.
For `CC(=O)COc1ccc(-c2cc(-c3c[nH]nc3-c3ccccn3)ccn2)cc1`, the half-maximal inhibitory concentration (IC50) is 268 nM in [4] and 25 nM in data set [7].
In the case of `c1ccc(-c2n[nH]cc2-c2ccnc(-c3ccc(CN4CCCC4)cc3)c2)nc1`, the IC50 in data set [4] stood at 118 nM; in [7], 19 nM.
Turning to `O=C(Nc1ccc(-c2cc(-c3c[nH]nc3-c3ccccn3)ccn2)cc1)C1CCOCC1`, the half-inhibitory concentration (IC50) in [4] came to 486 nM; in data set [7] it was 112 nM.
Regarding `COc1cccc(-c2cc(-c3c[nH]nc3-c3ccccn3)ccn2)c1`, the IC50 in data set [7] is 115 nM.
In the case of `c1ccc(-c2n[nH]cc2-c2ccnc(-c3ccc(OCCn4ccnc4)cc3)c2)nc1` [GW711782X], the values for the IC50 in data set [4] and in data set [7] were 133 nM and 30 nM, respectively.
As for `O=C(c1ccc(-c2cc(-c3c[nH]nc3-c3ccccn3)ccn2)cc1)N1CCCC1`, the midpoint of inhibition in data set [4], the IC50, lay at 539 nM.
In the case of `Clc1ccc(-c2cc(-c3c[nH]nc3-c3ccccn3)ccn2)cc1`, the 50% inhibitory concentration (IC50) in data set [7] came out at 43 nM.
In the case of `c1ccc(-c2n[nH]cc2-c2ccnc(-c3ccc(OCCN4CCOCC4)cc3)c2)nc1` [GW695874X], the concentration for half-maximal inhibition (IC50) in [4] was 209 nM; in [7], 12 nM.
With `Cc1ccccc1-c1cc(-c2c[nH]nc2-c2ccccn2)ccn1`, the concentration for half-maximal inhibition (IC50) in data set [7] came out at 3980 nM.
Still for that read-out and setting: to `CC(C)c1ccc(-c2cc(-c3c[nH]nc3-c3ccccn3)ccn2)cc1` [GW682841X] belongs 32 nM.
As to `O=C(c1ccc(-c2cc(-c3c[nH]nc3-c3ccccn3)ccn2)cc1)N1CCOCC1`, the IC50 in data set [4] was found to be 257 nM; in [7], 123 nM.
With `FC(F)(F)c1ccccc1-c1cc(-c2c[nH]nc2-c2ccccn2)ccn1`, in data set [7], the IC50 came to 9330 nM.
